Data: patent US7262296B2 (priority 2002, dated 2007)

test system: tip of the tongue of the volunteers; details: human, in vivo

Q: Which Pungency index does the source give for `CC(C)Oc1ccc(/C=C/C(=O)N2CCOCC2)cc1` [vi, 3-(4-isopropyloxyphenyl)-2E-propenoic acid morpholine amide] here?
A: 10^6

Q: Which Pungency index does the source give for `COc1ccc(/C=C/C=C/C(=O)N2CCOCC2)cc1` [i, 5-(4-methoxyphenyl)-2E, 4E-pentadienoic acid morpholine amide] here?
A: 10^6

Q: Which Pungency index does the source give for “3-(4-allyloxy phenyl)-2E-propenoic acid morpholine amide [viii]” here?
A: 10^4

Q: For `CCCCOc1ccc(/C=C/C(=O)N2CCOCC2)cc1` [vii, 3-(4-butyloxyphenyl)-2E-propenoic acid morpholine amide], which Pungency index is on record?
A: 10^7

Q: Which Pungency index does the source give for `O=C(/C=C/c1ccc2c(c1)OCCO2)N1CCOCC1` [x, 3-(3,4-ethylenedioxyphenyl)-2E-propenoic acid morpholine amide] here?
A: 10^4

Q: For `O=C(/C=C/C=C/c1ccc2c(c1)OCO2)N1CCCCC1` [A, reference compound], which Pungency index is on record?
A: 10^4

Q: With “3-[(2H)-2,2-dimethyl-3,4-dihydro-benzopyran-6yl]-2E-propenoic acid morpholine amide [ix]” as the molecule, how does the Pungency index read?
A: 10^6

Q: With `O=C(/C=C/C=C/c1ccc2c(c1)OCCO2)N1CCOCC1` [iv, 5-(3,4-ethylenedioxyphenyl)-2E, 4E-pentadienoic acid morpholine amide] as the molecule, how does the Pungency index read?
A: 10^4

Q: For `COc1ccc(/C=C/C(=O)N2CCOCC2)cc1` [v, 3-(4-methoxyphenyl)-2E-propenoic acid morpholine amide], which Pungency index is on record?
A: 10^5

Q: Which Pungency index does the source give for `CC(C)Oc1ccc(/C=C/C=C/C(=O)N2CCOCC2)cc1` [ii, 5-(4-isopropyloxyphenyl)-2E, 4E-pentadienoic acid morpholine amide] here?
A: 10^7

Q: With `CC1(C)CCc2cc(/C=C/C=C/C(=O)N3CCOCC3)ccc2O1` [iii, 5-(2H)-2,2-dimethyl-3,4-dihydro-benzopyran-6yl-2E, 4E-pentadienoic acid morpholine amide] as the molecule, how does the Pungency index read?
A: 10^4

test system: tongue; details: in vivo; cited from earlier work

Q: Which “heat units (pungency)” value does the source give for `COc1cc(CNC(=O)CCCC/C=C/C(C)C)ccc1O` [capsaicin] here?
A: 10^7 units

test system: hepatic drug metabolizing enzymes; details: rat, in vivo; cited from earlier work

Q: Which “effect on hepatic drug metabolizing enzymes” value does the source give for `O=C(/C=C/C=C/c1ccc2c(c1)OCO2)N1CCCCC1` [piperine] here?
A: inhibiting their activity
